These results are taken from patent publication US7256190B2, “Thiazole compounds useful as inhibitors of protein kinase” (Vertex Pharmaceuticals Incorporated, priority 2001, dated 2007).

pIC50, pKi: −log10 of the molar value.

Common to all, as to assay type: biochemical
One assay addresses GSK3-β (AA 1-420) (Homo sapiens, UniProt P49841). As to the kind of experiment: GSK-3 inhibition assay (coupled enzyme system). The settings on record: 10 μM ATP, 300 μM peptide, 60 nM GSK-3β, 30° C. Here is the method:
Compounds were screened for their ability to inhibit GSK3-β (AA 1-420) activity using a standard coupled enzyme system (Fox et al. (1998) Protein Sci. 7, 2249). Reactions were carried out in a solution containing 100 mM HEPES (pH 7.5), 10 mM MgCl2, 25 mM NaCl, 300 μM NADH, 1 mM DTT and 1.5% DMSO. Final substrate concentrations in the assay were 10 μM ATP (Sigma Chemicals, St Louis, Mo.) and 300 μM peptide (HSSPHQS(PO3H2)EDEEE, American Peptide, Sunnyvale, Calif.). Reactions were carried out at 30° C. and 60 nM GSK-3β. Final concentrations of the components of the coupled enzyme system were 2.5 mM phosphoenolpyruvate, 300μM NADH, 30 μg/ml pyruvate kinase and 10 μg/ml lactate dehydrogenase.
An assay stock buffer solution was prepared containing all of the reagents listed above with the exception of ATP and the test compound of interest. 59 μl of the test reaction was placed in a 96 well ½-diameter plate (Corning, Corning, N.Y.) then treated with 1 μl of a 2 mM DMSO stock containing the test compound (final compound concentration 30 μM). The plate was incubated for ˜10 minutes at 30° C. then the reaction initiated by addition of 7 μl of ATP (final concentration 10 μM). Rates of reaction were obtained using a Molecular Devices Spectramax plate reader (Sunnyvale, Calif.) over a 5 minute read time at 30° C.
(§1) The compound numbers correspond to the compound numbers in Table 1.

The target of another assay is T1, Aurora2 (Homo sapiens, UniProt O14965).
T1 sequence (O14965 1-403): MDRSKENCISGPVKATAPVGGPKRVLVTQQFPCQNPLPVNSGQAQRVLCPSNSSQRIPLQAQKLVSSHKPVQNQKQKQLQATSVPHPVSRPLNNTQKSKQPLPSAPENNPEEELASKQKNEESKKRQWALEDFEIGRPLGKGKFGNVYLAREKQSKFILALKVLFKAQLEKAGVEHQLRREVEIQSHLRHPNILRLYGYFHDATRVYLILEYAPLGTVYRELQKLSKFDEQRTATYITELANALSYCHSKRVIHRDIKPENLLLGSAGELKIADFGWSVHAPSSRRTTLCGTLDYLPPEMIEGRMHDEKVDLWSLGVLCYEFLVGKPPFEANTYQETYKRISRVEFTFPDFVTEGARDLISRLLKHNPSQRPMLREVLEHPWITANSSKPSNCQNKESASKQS
The assay is described as follows: Aurora2 inhibition assay (coupled enzyme assay). The following applies: 800 μM peptide LRRASLG, 70 nM Aurora2, 30° C. The procedure: Compounds are screened in the following manner for their ability to inhibit Aurora2 using a standard coupled enzyme assay (Fox et al (1998). Protein Sci 7, 2246). To an assay stock buffer solution containing 0.1M HEPES 7.5, 10 mM MgCl2, 1 mM DTT, 25 mM NaCl, 2.5 mM prosphoenolpyruvate, […], […] pyruvate kinase, […] lactate dehydrogenase, […], and 800 μM peptide (LRRASLG, American Peptide, Sunnyvale, Calif.) is added a DMSO solution of a compound of the present invention to a final concentration of 30 μM. The resulting mixture is incubated at 30° C. for 10 minutes. The reaction was initiated by the addition of 10 μL of Aurora2 stock solution to give a final concentration of 70 nM in the assay. The rates of reaction are obtained by monitoring absorbance at 340 nm over a 5 minute read time at 30° C. using a BioRad Ultramark plate reader (Hercules, Calif.). The IC50 values are determined from the rate data as a function of inhibitor concentration.
as §1

Another assay addresses Syk (Homo sapiens, UniProt P43405). As to the kind of experiment: Syk inhibition assay (coupled enzyme assay). The following applies: 200 μM ATP, 4 μM poly Gly-Tyr peptide, 30° C. The procedure: Reactions were carried out in 100 mM HEPES pH 7.5, 10 mM MgCl2, 25 mM NaCl, 1 mM DTT and 1.5% DMSO. Final substrate .concentrations in the assay were 200 μM ATP (Sigmachemical Co.) and 4 μM poly Gly-Tyr peptide (Sigma Chemical Co.). Assays were carried out at 30° C. and 200 nM Syk. Final concentrations of the components of the coupled enzyme system were 2.5 mM phosphoenolpyruvate, 300 μM NADH, 30 μg/ml pyruvate kinase and 10 μg/ml lactate dehydrogenase.
An assay stock buffer solution was prepared containing all of the reagents listed above, with the exception of Syk, DTT and the test compound of interest. 56 μl of the test reaction was placed in a 96 well plate followed by the addition of 1 μl of 2 mM DMSO stock containing the test compound (final compound concentration 30 μM). […] Rates of reaction were obtained using a BioRad Ultramark plate reader (Hercules, Calif.) over a 5 minute read time at 30° C.
as §1

GSK3-β (AA 1-420), sequence (P49841 whole entry, the tested form may be a part): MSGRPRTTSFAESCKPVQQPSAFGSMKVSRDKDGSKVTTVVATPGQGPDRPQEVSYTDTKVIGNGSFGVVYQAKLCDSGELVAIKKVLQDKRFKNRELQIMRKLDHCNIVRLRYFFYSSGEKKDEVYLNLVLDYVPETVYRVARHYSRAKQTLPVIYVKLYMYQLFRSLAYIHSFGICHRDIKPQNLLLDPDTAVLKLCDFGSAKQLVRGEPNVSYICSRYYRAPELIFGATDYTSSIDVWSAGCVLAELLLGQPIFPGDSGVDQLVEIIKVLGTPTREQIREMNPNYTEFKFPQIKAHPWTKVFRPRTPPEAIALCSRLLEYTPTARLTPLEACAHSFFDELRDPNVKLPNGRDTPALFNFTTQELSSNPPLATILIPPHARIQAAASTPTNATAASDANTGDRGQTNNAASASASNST

One may read the pKi as the Ki on a negative log10 scale, so that one unit is a factor of ten. Low values mean a large Ki, high ones a small Ki. The term pIC50 denotes the negative decadic logarithm of the IC50, by convention in mol/L. In the case of `CS(=O)(=O)c1ccc(COc2cccc(Nc3nccc(-c4nccs4)n3)c2)cc1` [Compound I-5], the pKi at GSK3-β (AA 1-420) is over 7.00. In addition, the pIC50 against Aurora2 is under 5.70; at Syk it was over 6.30.
For `NS(=O)(=O)c1ccc(Nc2nccc(-c3nccs3)n2)cc1` [Compound I-55], on GSK3-β (AA 1-420), the pKi was over 7.00. For the same compound, the pIC50 on Aurora2 and on Syk was over 6.30 in each case.
Regarding `Nc1cccc(COc2cccc(Nc3nccc(-c4nccs4)n3)c2)c1` [Compound I-14], at GSK3-β (AA 1-420), the pKi is over 7.00. Also, the pIC50 against Aurora2 and on Syk was 5.70 to 6.30 each time.
As for `Cc1ccc(Nc2nccc(-c3nccs3)n2)cc1` [Compound I-67], the pKi at GSK3-β (AA 1-420) was 6.00 to 7.00. Further, the pIC50 against Aurora2 and against Syk was over 6.30 each time.
For the compound `Cc1cc(C)cc(Nc2nccc(-c3nccs3)n2)c1` [Compound I-73], the pKi at GSK3-β (AA 1-420) is over 7.00. Also, the pIC50 on Aurora2 and against Syk was over 6.30 in each case.
In turn, `FC(F)(F)c1cccc(Nc2nccc(-c3nccs3)n2)c1` [Compound I-37] had a pKi on GSK3-β (AA 1-420) of over 7.00. For the same compound, the pIC50 was 5.70 to 6.30 on Aurora2 and over 6.30 on Syk.
For `O=[N+]([O-])c1cccc(Nc2nccc(-c3nccs3)n2)c1` [Compound I-16], the negative-log Ki (pKi) on GSK3-β (AA 1-420) was under 6.00. The values for the pIC50 against Aurora2 and at Syk were over 6.30 and 5.70 to 6.30, respectively.
Taken in the same sequence, the figures for `c1ccc2cc(Nc3nccc(-c4nccs4)n3)ccc2c1` [Compound I-52] were over 7.00, under 5.70 and under 5.70.
